Where two headings read alike, the source gives them in different places. One block for each molecule: values may come before it.
How the values were obtained:
Assay type in all cases: biochemical
CDK1/CCNB1 = CDK1/CCNB1 (Homo sapiens, UniProt P06493); experiment: CDK1 homogeneous time-resolved fluorescence (HTRF) kinase assay; conditions: CDK1/CCNB
How it was run: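 High-ATP (1 mM) HTRF assay with 0.5 nM CDK1/cyclin B1 and 50 nM ULight-4E-BP1 (Thr37/46) substrate, 60 min at 23 °C after 20-min compound preincubation. IC50 values come from dose-response curves.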

CDK4/CCND3 = CDK4/CCND3 (Homo sapiens, UniProt P11802); experiment: CDK4 homogeneous time-resolved fluorescence (HTRF) kinase assay; conditions: CDK4/CCND
Chain of CDK4/CCND3 (P11802 whole entry): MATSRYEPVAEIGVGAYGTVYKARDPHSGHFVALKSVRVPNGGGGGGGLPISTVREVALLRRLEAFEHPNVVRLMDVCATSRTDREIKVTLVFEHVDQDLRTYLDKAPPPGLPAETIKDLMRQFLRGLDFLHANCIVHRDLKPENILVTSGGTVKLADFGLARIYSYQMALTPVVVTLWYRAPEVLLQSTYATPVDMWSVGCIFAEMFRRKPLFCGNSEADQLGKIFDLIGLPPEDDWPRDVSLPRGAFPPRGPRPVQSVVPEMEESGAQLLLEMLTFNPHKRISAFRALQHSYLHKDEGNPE
Chain of CDK4/CCND3 (P30281 whole entry partner): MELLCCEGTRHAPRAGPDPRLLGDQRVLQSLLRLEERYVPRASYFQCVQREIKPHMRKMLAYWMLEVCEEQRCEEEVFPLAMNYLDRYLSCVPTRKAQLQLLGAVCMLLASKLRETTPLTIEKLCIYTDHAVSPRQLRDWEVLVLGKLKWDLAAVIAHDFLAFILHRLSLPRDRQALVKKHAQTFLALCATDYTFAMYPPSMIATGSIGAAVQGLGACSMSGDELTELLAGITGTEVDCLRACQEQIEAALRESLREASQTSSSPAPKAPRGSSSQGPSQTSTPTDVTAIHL
How it was run: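 HTRF kinase assay, CDK4/CCND3 1.5 nM, ATP 1 mM, ULight-4E-BP1 peptide 50 nM, 23 °C, 60 min reaction after 20 min preincubation. Eu-anti-pThr37/46 antibody detection. 11-pt half-log curves from 10 μM → IC50.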

CDK6/CCND1 = CDK6/CCND1 (Homo sapiens, UniProt Q00534); experiment: CDK6 homogeneous time-resolved fluorescence (HTRF) kinase assay; conditions: CDK6/CCND
Chain of CDK6/CCND1 (Q00534 whole entry): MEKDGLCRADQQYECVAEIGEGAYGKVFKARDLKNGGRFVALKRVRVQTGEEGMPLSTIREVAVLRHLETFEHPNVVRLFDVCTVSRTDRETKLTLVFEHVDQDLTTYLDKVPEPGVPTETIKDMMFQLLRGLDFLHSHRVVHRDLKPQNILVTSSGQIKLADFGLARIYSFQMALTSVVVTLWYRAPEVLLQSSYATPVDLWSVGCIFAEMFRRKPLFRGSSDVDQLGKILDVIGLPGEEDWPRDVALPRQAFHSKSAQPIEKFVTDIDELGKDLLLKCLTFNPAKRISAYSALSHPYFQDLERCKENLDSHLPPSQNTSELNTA
Chain of CDK6/CCND1 (P24385 whole entry partner): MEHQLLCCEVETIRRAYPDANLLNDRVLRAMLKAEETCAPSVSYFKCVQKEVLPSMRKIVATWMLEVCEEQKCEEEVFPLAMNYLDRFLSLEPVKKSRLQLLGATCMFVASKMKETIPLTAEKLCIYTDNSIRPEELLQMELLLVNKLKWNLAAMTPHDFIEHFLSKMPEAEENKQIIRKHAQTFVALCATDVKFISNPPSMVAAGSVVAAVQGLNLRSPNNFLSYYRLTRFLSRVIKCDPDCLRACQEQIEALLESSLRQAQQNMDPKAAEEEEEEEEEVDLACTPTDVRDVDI
How it was run: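 Recombinant CDK6/CCND1 (1 nM final) was preincubated with compound for 20 min at 23 °C in HEPES buffer with MgCl2, EGTA, DTT and Tween 20. Kinase reaction then ran 60 min at 23 °C with 1 mM ATP and 50 nM ULight-4E-BP1 (Thr37/46) peptide, and was stopped with EDTA.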

CDK2/CCNE1 = CDK2/CCNE1 (Homo sapiens, UniProt P24941); experiment: CDK2 homogeneous time-resolved fluorescence (HTRF) kinase assay; conditions: CDK2/CCNE
How it was run: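 TR-FRET read-out (665 nm, or 665/615 ratio) of Eu-antibody detection of phospho-4E-BP1 (Thr37/46) ULight peptide. Enzyme 3 nM, ATP 1 mM, peptide 50 nM, 1% DMSO; 60 min reaction at 23 °C after 20 min compound preincubation. IC50 from 11-point half-log titrations, top typically 10 μM.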

[1] = >250 nM, read-out: CDK1/CCNB IC50 >250 nM
[2] = >250 nM, read-out: CDK4/CCND IC50, >250 nM
[3] = >250 nM, 1 mM ATP, read-out: CDK6/CCND IC50, >250 nM
[4] = 25-250 nM, read-out: CDK2/CCNE IC50, 25-250 nM
[5] = >250 nM marked x, read-out: CDK1/CCNB IC50 >250 nM
[6] = 25-250 nM marked x, read-out: CDK4/CCND IC50 25-250 nM
[7] = 25-250 nM marked x, read-out: CDK6/CCND IC50 25-250 nM
[8] = <25 nM, read-out: CDK2/CCNE IC50 <25 nM
[9] = x = IC50 >250 nM, read-out: CDK1/CCNB IC50 (>250 nM column)
[10] = x = IC50 >250 nM, read-out: CDK4/CCND IC50 (>250 nM column)
[11] = x = IC50 >250 nM, read-out: CDK6/CCND IC50 (>250 nM column)
[12] = x = IC50 <25 nM, read-out: CDK2/CCNE IC50 (<25 nM)
[13] = <25 nM, read-out: CDK2/CCNE IC50, <25 nM

Chain of CDK1/CCNB1 (P06493 whole entry): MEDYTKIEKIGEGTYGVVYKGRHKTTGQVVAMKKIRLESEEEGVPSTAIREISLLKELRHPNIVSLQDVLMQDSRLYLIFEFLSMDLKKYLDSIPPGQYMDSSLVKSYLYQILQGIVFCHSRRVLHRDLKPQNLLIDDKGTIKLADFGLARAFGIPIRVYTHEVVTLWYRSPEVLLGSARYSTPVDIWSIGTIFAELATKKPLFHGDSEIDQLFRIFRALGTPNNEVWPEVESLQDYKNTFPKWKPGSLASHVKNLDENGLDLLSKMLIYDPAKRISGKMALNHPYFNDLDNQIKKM
Chain of CDK1/CCNB1 (P14635 whole entry partner): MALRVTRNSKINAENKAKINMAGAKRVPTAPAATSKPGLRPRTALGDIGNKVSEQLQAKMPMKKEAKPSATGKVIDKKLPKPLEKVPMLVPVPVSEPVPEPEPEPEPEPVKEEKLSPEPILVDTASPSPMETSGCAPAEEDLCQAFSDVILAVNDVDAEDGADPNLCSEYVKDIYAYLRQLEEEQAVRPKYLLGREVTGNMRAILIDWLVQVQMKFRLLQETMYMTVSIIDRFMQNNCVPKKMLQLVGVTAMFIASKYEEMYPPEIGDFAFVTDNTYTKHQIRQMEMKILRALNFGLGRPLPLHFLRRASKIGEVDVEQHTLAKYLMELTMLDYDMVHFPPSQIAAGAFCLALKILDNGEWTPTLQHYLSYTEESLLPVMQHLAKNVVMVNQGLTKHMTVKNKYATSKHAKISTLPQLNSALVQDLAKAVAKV

SMILES: CCC1(CC)C(=O)Nc2cc(C#Cc3nccc4cnc(Nc5ccc(S(=N)(=O)C6CC(F)(F)C6)cc5)cc34)ccc21 (single isomer, unassigned) [Ex 303, 6-((7-((4-(3,3-difluorocyclobutane-1-sulfonimidoyl)phenyl)amino)-2,6-naphthyridin-1-yl)ethynyl)-3,3-diethylindolin-2-one]
IC50 (CDK1/CCNB1; [5]): > 250 nM
IC50 (CDK4/CCND3; >250 nM marked x, read-out: CDK4/CCND IC50 >250 nM): > 250 nM
IC50 (CDK6/CCND1; >250 nM marked x, read-out: CDK6/CCND IC50 >250 nM): > 250 nM
IC50 (CDK2/CCNE1; 25-250 nM marked x, read-out: CDK2/CCNE IC50 25-250 nM): 25 to 250 nM

SMILES: CC(C)N(C)c1nccc2cnc(NC3CCN(S(C)(=O)=O)CC3)cc12 [Ex 35, N1-isopropyl-N1-methyl-N7-(1-(methylsulfonyl)piperidin-4-yl)-2,6-naphthyridine-1,7-diamine]
IC50 (CDK1/CCNB1; 25-250 nM marked x, read-out: CDK1/CCNB IC50 25-250 nM): 25 to 250 nM
IC50 (CDK4/CCND3; [6]): 25 to 250 nM
IC50 (CDK6/CCND1; [7]): 25 to 250 nM
IC50 (CDK2/CCNE1; [8]): < 25 nM

SMILES: CS(=N)(=O)c1ccc(Nc2cc3c(C#Cc4ccc(=O)[nH]n4)nccc3cn2)cc1 (racemic) [Ex 497, 6-((7-((4-(S-methylsulfonimidoyl)phenyl)amino)-2,6-naphthyridin-1-yl)ethynyl)pyridazin-3(2H)-one]
IC50 (CDK1/CCNB1; [9]): > 250 nM
IC50 (CDK4/CCND3; [10]): > 250 nM
IC50 (CDK6/CCND1; [11]): > 250 nM
IC50 (CDK2/CCNE1; [12]): < 25 nM

SMILES: CS(=O)(=O)N1CCC(Nc2cc3c(N4CCC(C#N)C4)nccc3cn2)CC1 (racemic) [Ex 45, 1-(7-((1-(methylsulfonyl)piperidin-4-yl)amino)-2,6-naphthyridin-1-yl)pyrrolidine-3-carbonitrile]
IC50 (CDK1/CCNB1; [5]): > 250 nM
IC50 (CDK4/CCND3; [6]): 25 to 250 nM
IC50 (CDK6/CCND1; [7]): 25 to 250 nM
IC50 (CDK2/CCNE1; [8]): < 25 nM

Results, then the molecule that gave them:

IC50 (CDK1/CCNB1; [1]): > 250 nM
IC50 (CDK4/CCND3; [2]): > 250 nM
IC50 (CDK6/CCND1; [3]): > 250 nM
IC50 (CDK2/CCNE1; [4]): 25 to 250 nM
SMILES: Cc1c(-c2nccc3cnc(Nc4ccc(S(=O)(=O)Nc5cccc(C(F)(F)F)n5)cc4)cc23)ccc2c1cnn2CC(O)(C(F)(F)F)C(F)(F)F [Ex 720, 4-((5-(4-methyl-1-(3,3,3-trifluoro-2-hydroxy-2-(trifluoromethyl)propyl)-1H-indazol-5-yl)-2,6-naphthyridin-3-yl)amino)-N-(6-(trifluoromethyl)pyridin-2-yl)benzenesulfonamide]

IC50 (CDK1/CCNB1; [1]): > 250 nM
IC50 (CDK4/CCND3; 25-250 nM, read-out: CDK4/CCND IC50, 25-250 nM): 25 to 250 nM
IC50 (CDK6/CCND1; 25-250 nM, 1 mM ATP, read-out: CDK6/CCND IC50, 25-250 nM): 25 to 250 nM
IC50 (CDK2/CCNE1; [13]): < 25 nM
SMILES: Cc1c(-c2nccc3cnc(Nc4ccc(S(=O)(=O)Nc5cc(N6CCOCC6)ccn5)cc4)cc23)ccc2c1cnn2CC(C)(C)O [Ex 772, 4-((5-(1-(2-hydroxy-2-methylpropyl)-4-methyl-1H-indazol-5-yl)-2,6-naphthyridin-3-yl)amino)-N-(4-morpholinopyridin-2-yl)benzenesulfonamide]

IC50 (CDK1/CCNB1; [9]): > 250 nM
IC50 (CDK4/CCND3; [10]): > 250 nM
IC50 (CDK6/CCND1; [11]): > 250 nM
IC50 (CDK2/CCNE1; x = IC50 25-250 nM, read-out: CDK2/CCNE IC50 (25-250 nM)): 25 to 250 nM
SMILES: CS(=O)(=O)c1ccc(Nc2cc3c(C#Cc4cnc(N)nc4)nccc3cn2)cc1 [Ex 633, 5-((2-aminopyrimidin-5-yl)ethynyl)-N-(4-(methylsulfonyl)phenyl)-2,6-naphthyridin-3-amine]

IC50 (CDK1/CCNB1; [1]): > 250 nM
IC50 (CDK4/CCND3; [2]): > 250 nM
IC50 (CDK6/CCND1; [3]): > 250 nM
IC50 (CDK2/CCNE1; [4]): 25 to 250 nM
SMILES: Cc1c(-c2nccc3cnc(Nc4ccc(S(=O)(=O)NCc5ccccc5)cc4)cc23)ccc2c1cnn2CC(O)(C(F)(F)F)C(F)(F)F [Ex 729, N-benzyl-4-((5-(4-methyl-1-(3,3,3-trifluoro-2-hydroxy-2-(trifluoromethyl)propyl)-1H-indazol-5-yl)-2,6-naphthyridin-3-yl)amino)benzenesulfonamide]

IC50 (CDK1/CCNB1; [9]): > 250 nM
IC50 (CDK4/CCND3; [10]): > 250 nM
IC50 (CDK6/CCND1; x = IC50 25-250 nM, read-out: CDK6/CCND IC50 (25-250 nM)): 25 to 250 nM
IC50 (CDK2/CCNE1; [12]): < 25 nM
SMILES: CS(=O)(=O)c1ccc(Nc2cc3c(C#CC4CCN(Cc5cn[nH]c5)CC4)nccc3cn2)cc1 [Example 603, 5-((1-((1H-pyrazol-4-yl)methyl)piperidin-4-yl)ethynyl)-N-(4-(methylsulfonyl)phenyl)-2,6-naphthyridin-3-amine]

IC50 (CDK1/CCNB1; [1]): > 250 nM
IC50 (CDK4/CCND3; [2]): > 250 nM
IC50 (CDK6/CCND1; [3]): > 250 nM
IC50 (CDK2/CCNE1; [13]): < 25 nM
SMILES: Cc1c(-c2nccc3cnc(Nc4ccc(S(=O)(=O)Nc5cc(C(F)(F)F)cc(C(F)(F)F)n5)cc4)cc23)ccc2c1cnn2CC(C)(C)O [Ex 775, N-(4,6-bis(trifluoromethyl)pyridin-2-yl)-4-((5-(1-(2-hydroxy-2-methylpropyl)-4-methyl-1H-indazol-5-yl)-2,6-naphthyridin-3-yl)amino)benzenesulfonamide]

Reference: patent publication US20260325533A1, “CDK INHIBITOR COMPOUNDS” (ALEKSIA THERAPEUTICS, INC., priority 2023, published 2026)
